{
  "source": "ChEMBL document CHEMBL4725437",
  "about": "“P450s under Restriction (PURE) Screen Using HepaRG and Primary Human Hepatocytes for Discovery of Novel HBV Antivirals” (ACS Med Chem Lett, 2020)",
  "key": {"CYP2C9 [1]": {"molecular_target": "T1, CYP2C9 (Homo sapiens, UniProt P11712)", "T1 sequence (P11712 whole entry)": "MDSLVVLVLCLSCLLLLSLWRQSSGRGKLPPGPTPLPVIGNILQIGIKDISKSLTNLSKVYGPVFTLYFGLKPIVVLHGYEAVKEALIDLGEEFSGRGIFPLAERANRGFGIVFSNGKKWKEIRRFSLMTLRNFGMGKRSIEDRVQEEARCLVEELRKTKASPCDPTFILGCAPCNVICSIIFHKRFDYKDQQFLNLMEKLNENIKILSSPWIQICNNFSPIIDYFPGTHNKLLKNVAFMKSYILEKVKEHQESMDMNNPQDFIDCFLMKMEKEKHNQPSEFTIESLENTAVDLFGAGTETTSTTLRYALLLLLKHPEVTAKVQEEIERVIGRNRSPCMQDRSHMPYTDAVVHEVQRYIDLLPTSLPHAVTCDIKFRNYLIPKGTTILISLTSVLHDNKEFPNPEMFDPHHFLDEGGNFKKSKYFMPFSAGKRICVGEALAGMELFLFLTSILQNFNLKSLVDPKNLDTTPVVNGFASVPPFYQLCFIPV", "assay": "(§1) Inhibition of CYP2C9 in HBV-infected human HepaRG cells at 10 mM using luciferin-H as substrate treated for 1 hr on day 5 post-infection followed by removal of media and supplemented with fresh media and further incubated for 3 days then followed by treatment for 1 hr on day 8 post-infection followed by removal of media and supplemented with fresh media and further incubated for 3 days in presence of 50 uM SKF-525A and measured on day 11 post-infection by P450-Glo chemiluminescent assay relative to control", "assay_type": "ADME, tissue-based", "conditions": "probe luciferin-H, with SKF-525A 50 uM"}, "CYP3A4 [2]": {"molecular_target": "T2, CYP3A4 (Homo sapiens, UniProt P08684)", "T2 sequence (P08684 whole entry)": "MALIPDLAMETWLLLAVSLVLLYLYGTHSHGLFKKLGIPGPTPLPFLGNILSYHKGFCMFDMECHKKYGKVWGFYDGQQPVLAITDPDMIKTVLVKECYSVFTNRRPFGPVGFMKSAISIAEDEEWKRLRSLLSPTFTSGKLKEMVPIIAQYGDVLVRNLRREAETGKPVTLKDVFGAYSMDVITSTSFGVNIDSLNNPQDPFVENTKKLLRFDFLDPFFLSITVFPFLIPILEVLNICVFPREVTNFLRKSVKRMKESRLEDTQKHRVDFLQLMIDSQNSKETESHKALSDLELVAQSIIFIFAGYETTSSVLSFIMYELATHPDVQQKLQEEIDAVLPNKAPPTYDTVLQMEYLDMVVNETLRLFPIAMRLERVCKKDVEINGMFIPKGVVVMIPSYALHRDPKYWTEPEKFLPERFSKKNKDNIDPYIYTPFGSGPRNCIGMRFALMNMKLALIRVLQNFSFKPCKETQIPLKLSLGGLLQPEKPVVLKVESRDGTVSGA", "assay": "as §1, with “CYP3A4” for “CYP2C9”, “luciferin-IPA” for “luciferin-H”, “days” for “days in presence of 50 uM SKF-525A”", "assay_type": "ADME, tissue-based", "conditions": "probe luciferin-IPA"}, "CYP2C9 [3]": {"molecular_target": "T1, CYP2C9", "assay": "as §1, with “days” for “days in presence of 50 uM SKF-525A”", "assay_type": "ADME, tissue-based", "conditions": "probe luciferin-H"}, "CYP1A2 [4]": {"molecular_target": "T3, CYP1A2 (Homo sapiens, UniProt P05177)", "T3 sequence (P05177 whole entry)": "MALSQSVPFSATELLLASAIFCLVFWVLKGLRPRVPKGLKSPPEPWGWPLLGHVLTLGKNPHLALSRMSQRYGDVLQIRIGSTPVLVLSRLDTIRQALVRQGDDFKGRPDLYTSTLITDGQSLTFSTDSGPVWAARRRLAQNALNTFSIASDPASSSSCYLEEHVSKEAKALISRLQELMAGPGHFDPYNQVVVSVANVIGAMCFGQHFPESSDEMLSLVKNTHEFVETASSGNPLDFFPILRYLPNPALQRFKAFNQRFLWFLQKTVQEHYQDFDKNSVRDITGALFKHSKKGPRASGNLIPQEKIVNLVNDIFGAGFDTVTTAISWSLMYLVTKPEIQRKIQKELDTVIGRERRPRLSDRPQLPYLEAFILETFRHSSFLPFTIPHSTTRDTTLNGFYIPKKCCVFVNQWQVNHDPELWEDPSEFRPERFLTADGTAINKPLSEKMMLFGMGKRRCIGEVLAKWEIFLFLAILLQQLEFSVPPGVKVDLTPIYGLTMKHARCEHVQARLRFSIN", "assay": "as §1, with “CYP1A2” for “CYP2C9”, “luciferin-1A2” for “luciferin-H”, “days” for “days in presence of 50 uM SKF-525A”", "assay_type": "ADME, tissue-based", "conditions": "probe luciferin-1A2"}, "Hepatocyte [5]": {"system": "Hepatocyte", "assay": "as §1, with “Cytotoxicity against human primary hepatocytes infected with HBV assessed as reduction” for “Inhibition of CYP2C9”, “cell viability” for “HBV-infected human HepaRG cells”, “mM” for “mM using luciferin-H as substrate”, “Celltiter-Glo” for “P450-Glo chemiluminescent”", "assay_type": "cell-based"}, "CYP2C9 [6]": {"molecular_target": "T1, CYP2C9", "assay": "(§2) Inhibition of CYP2C9 in HBV-infected human HepaRG cells at 10 mM using luciferin-H as substrate treated for 1 hr on day 5 post-infection followed by removal of media and supplemented with fresh media and further incubated for 3 days by P450-Glo chemiluminescent assay relative to control", "assay_type": "ADME, tissue-based", "conditions": "probe luciferin-H"}, "CYP3A4 [7]": {"molecular_target": "T2, CYP3A4", "assay": "as §1, with “CYP3A4” for “CYP2C9”, “luciferin-IPA” for “luciferin-H”", "assay_type": "ADME, tissue-based", "conditions": "probe luciferin-IPA, with SKF-525A 50 uM"}, "CYP3A4 [8]": {"molecular_target": "T2, CYP3A4", "assay": "(§3) Inhibition of CYP3A4 in HBV-infected human HepaRG cells at 10 mM using luciferin-IPA as substrate treated for 1 hr on day 5 post-infection followed by removal of media and supplemented with fresh media and further incubated for 3 days by P450-Glo chemiluminescent assay relative to control", "assay_type": "ADME, tissue-based", "conditions": "probe luciferin-IPA"}, "Hepatitis B virus [9]": {"system": "Hepatitis B virus", "assay": "as §1, with “Antiviral activity against Hepatitis B virus infected” for “Inhibition of CYP2C9”, “in” for “in HBV-infected”, “primary hepatocytes assessed as reduction in HbsAg secretion level” for “HepaRG cells”, “mM” for “mM using luciferin-H as substrate”, “chemiluminescence immunostaining” for “P450-Glo chemiluminescent”", "assay_type": "functional, organism-based", "conditions": "Primary hepatocyte"}, "HepaRG [10]": {"system": "HepaRG", "assay": "(§4) Cytotoxicity against human HepaRG cells infected with HBV assessed as reduction in cell viability at 0.2 to 20 mM treated for 1 hr on day 5 post-infection followed by removal of media and supplemented with fresh media and further incubated for 3 days then followed by treatment for 1 hr on day 8 post-infection followed by removal of media and supplemented with fresh media and further incubated for 3 days and measured on day 11 post-infection by Celltiter-Glo assay", "assay_type": "cell-based", "conditions": "20000 µM, dose 0.2-20 mM"}, "CYP3A4 [11]": {"molecular_target": "T2, CYP3A4", "assay": "as §3, with “days in presence of 50 uM SKF-525A” for “days”", "assay_type": "ADME, tissue-based", "conditions": "probe luciferin-IPA, with SKF-525A 50 uM"}, "Cytochrome P450 1A2 [12]": {"molecular_target": "T4, Cytochrome P450 1A2 (Homo sapiens, UniProt P05177)", "T4 sequence (P05177 whole entry)": "T3 sequence (P05177 whole entry)", "assay": "as §1, with “CYP1A2” for “CYP2C9”, “primary hepatocytes” for “HepaRG cells”, “0.2 to 20” for “10”, “luciferin-1A2” for “luciferin-H”, “days” for “days in presence of 50 uM SKF-525A”, “assay” for “assay relative to control”", "assay_type": "ADME, tissue-based", "conditions": "heparg, 20000 µM, dose 0.2-20 mM"}, "CYP1A2 [13]": {"molecular_target": "T3, CYP1A2", "assay": "(§5) Inhibition of CYP1A2 in HBV-infected human HepaRG cells at 10 mM using luciferin-1A2 as substrate treated for 1 hr on day 5 post-infection followed by removal of media and supplemented with fresh media and further incubated for 3 days by P450-Glo chemiluminescent assay relative to control", "assay_type": "ADME, tissue-based", "conditions": "probe luciferin-1A2"}, "CYP2C9 [14]": {"molecular_target": "T1, CYP2C9", "assay": "as §2, with “days in presence of 50 uM SKF-525A” for “days”", "assay_type": "ADME, tissue-based", "conditions": "probe luciferin-H, with SKF-525A 50 uM"}, "Cytochrome P450 3A4 [15]": {"molecular_target": "T5, Cytochrome P450 3A4 (Homo sapiens, UniProt P08684)", "T5 sequence (P08684 whole entry)": "as the sequence (P08684 whole entry) above", "assay": "(§6) Inhibition of CYP3A4 in HBV-infected human primary hepatocytes at 0.2 to 20 mM using luciferin-IPA as substrate treated for 1 hr on day 5 post-infection followed by removal of media and supplemented with fresh media and further incubated for 3 days then followed by treatment for 1 hr on day 8 post-infection followed by removal of media and supplemented with fresh media and further incubated for 3 days and measured on day 11 post-infection by P450-Glo chemiluminescent assay", "assay_type": "ADME, tissue-based, Primary hepatocyte", "conditions": "20000 µM, dose 0.2-20 mM"}, "Cytochrome P450 2C9 [16]": {"molecular_target": "T6, Cytochrome P450 2C9 (Homo sapiens, UniProt P11712)", "T6 sequence (P11712 whole entry)": "as the sequence (P11712 whole entry) above", "assay": "as §6, with “CYP2C9” for “CYP3A4”, “HepaRG cells” for “primary hepatocytes”, “luciferin-H” for “luciferin-IPA”", "assay_type": "ADME, tissue-based", "conditions": "20000 µM, dose 0.2-20 mM"}, "CYP1A2 [17]": {"molecular_target": "T3, CYP1A2", "assay": "as §1, with “CYP1A2” for “CYP2C9”, “luciferin-1A2” for “luciferin-H”", "assay_type": "ADME, tissue-based", "conditions": "probe luciferin-1A2, with SKF-525A 50 uM"}, "Cytochrome P450 2C9 [18]": {"molecular_target": "T6, Cytochrome P450 2C9", "assay": "as §6, with “CYP2C9” for “CYP3A4”, “hepatocytes cells” for “hepatocytes”, “luciferin-H” for “luciferin-IPA”", "assay_type": "ADME, tissue-based, Primary hepatocyte", "conditions": "20000 µM, dose 0.2-20 mM"}, "Cytochrome P450 3A4 [19]": {"molecular_target": "T5, Cytochrome P450 3A4", "assay": "as §6, with “HepaRG cells” for “primary hepatocytes”", "assay_type": "ADME, tissue-based", "conditions": "20000 µM, dose 0.2-20 mM"}, "CYP1A2 [20]": {"molecular_target": "T3, CYP1A2", "assay": "as §5, with “days in presence of 50 uM SKF-525A” for “days”", "assay_type": "ADME, tissue-based", "conditions": "probe luciferin-1A2, with SKF-525A 50 uM"}, "Cytochrome P450 1A2 [21]": {"molecular_target": "T4, Cytochrome P450 1A2", "assay": "as §6, with “CYP1A2” for “CYP3A4”, “HepaRG cells” for “primary hepatocytes”, “luciferin-1A2” for “luciferin-IPA”", "assay_type": "ADME, tissue-based", "conditions": "20000 µM, dose 0.2-20 mM"}, "Hepatitis B virus [22]": {"system": "Hepatitis B virus", "assay": "Antiviral activity against Hepatitis B virus infected in human primary hepatocytes assessed as reduction in HbsAg secretion level at 10 mM treated for 1 hr on day 5 post-infection followed by removal of media and supplemented with fresh media and further incubated for 3 days then followed by treatment for 1 hr on day 8 post-infection followed by removal of media and supplemented with fresh media and further incubated for 3 days in presence of 25 uM SKF-525A and measured on day 11 post-infection by chemiluminescence immunostaining assay", "assay_type": "functional, Primary hepatocyte", "set-up": "scale not given: the % may be the effect or the level left"}, "HepaRG [23]": {"system": "HepaRG", "assay": "as §4, with “viability at 10 mM treated” for “viability at 0.2 to 20 mM treated”, “3 days in presence of 50 uM SKF-525A and measured” for “3 days and measured”", "assay_type": "cell-based", "conditions": "10000 µM"}, "Hepatitis B virus [24]": {"system": "Hepatitis B virus", "assay": "Antiviral activity against Hepatitis B virus infected in human HepaRG cells assessed as reduction in HbsAg secretion level at 10 mM treated for 1 hr on day 5 post-infection followed by removal of media and supplemented with fresh media and further incubated for 3 B37days then followed by treatment for 1 hr on day 8 post-infection followed by removal of media and supplemented with fresh media and further incubated for 3 days in presence of 50 uM SKF-525Aand measured on day 11 post-infection by chemiluminescence immunostaining assay", "assay_type": "functional, organism-based"}, "Hepatocyte [25]": {"system": "Hepatocyte", "assay": "as §4, with “against human primary hepatocytes infected with” for “against human HepaRG cells infected with”, “viability at 10 mM treated” for “viability at 0.2 to 20 mM treated”, “3 days in presence of 25 uM SKF-525A and measured” for “3 days and measured”", "assay_type": "cell-based", "conditions": "10000 µM"}},
  "note": "Calls of active or inactive are those of the source. The calls are words filed in the database; no cut-off is given here.",
  "data": [
    {"smiles": "Nn1nnc2ccccc21", "values": [
      {"measurement": "inhibition at 1 h, 10000 µM", "setting": "CYP2C9 [1]", "value": 82.1, "unit": "%"},
      {"measurement": "inhibition at 1 h, 50 µM", "setting": "CYP3A4 [2]", "value": 87.8, "unit": "%"},
      {"measurement": "inhibition at 1 h, 10000 µM", "setting": "CYP2C9 [3]", "value": 67.5, "unit": "%"},
      {"measurement": "inhibition at 1 h, 10000 µM", "setting": "CYP1A2 [4]", "value": 91, "unit": "%"},
      {"measurement": "Activity", "setting": "Hepatocyte [5]", "value": 10, "unit": "%"},
      {"measurement": "inhibition at 1 h, 10000 µM", "setting": "CYP2C9 [6]", "value": -9.4, "unit": "%"},
      {"measurement": "inhibition at 2 h, 10000 µM", "setting": "CYP3A4 [7]", "value": 90.3, "unit": "%"},
      {"measurement": "inhibition at 1 h, 10000 µM", "setting": "CYP3A4 [8]", "value": 9.6, "unit": "%"},
      {"measurement": "Activity", "setting": "Hepatitis B virus [9]", "value": "inactive"},
      {"measurement": "Activity", "setting": "HepaRG [10]", "value": "Non-Toxic"},
      {"measurement": "inhibition at 1 h, 10000 µM", "setting": "CYP3A4 [11]", "value": 83.3, "unit": "%"},
      {"measurement": "inhibition (INH)", "setting": "Cytochrome P450 1A2 [12]", "value": "Active"},
      {"measurement": "inhibition at 1 h, 10000 µM", "setting": "CYP1A2 [13]", "value": 37.1, "unit": "%"},
      {"measurement": "inhibition at 1 h, 10000 µM", "setting": "CYP2C9 [14]", "value": 36.9, "unit": "%"},
      {"measurement": "inhibition (INH)", "setting": "Cytochrome P450 3A4 [15]", "value": "Active"},
      {"measurement": "inhibition (INH)", "setting": "Cytochrome P450 2C9 [16]", "value": "Active"},
      {"measurement": "inhibition at 1 h, 10000 µM", "setting": "CYP1A2 [17]", "value": 88.8, "unit": "%"},
      {"measurement": "inhibition (INH)", "setting": "Cytochrome P450 2C9 [18]", "value": "Active"},
      {"measurement": "inhibition (INH)", "setting": "Cytochrome P450 3A4 [19]", "value": "Active"},
      {"measurement": "inhibition at 1 h, 10000 µM", "setting": "CYP1A2 [20]", "value": 39.2, "unit": "%"},
      {"measurement": "inhibition (INH)", "setting": "Cytochrome P450 1A2 [21]", "value": "Active"},
      {"measurement": "Activity", "setting": "Hepatitis B virus [22]", "value": 20, "unit": "%"},
      {"measurement": "Activity", "setting": "HepaRG [23]", "value": "Non-Toxic"},
      {"measurement": "Activity", "setting": "Hepatitis B virus [24]", "value": "inactive"},
      {"measurement": "Activity", "setting": "Hepatocyte [25]", "value": "Non-Toxic"}
    ]}
  ]
}
